pEC50: −log10 of the molar value.
Biological target: T1, LCAT (Homo sapiens, UniProt P04180)
T1 construct: The obtained fraction was dialyzed against phosphate-buffered saline (pH 7.4) and used as an enzyme source and an acceptor for LCAT; from tissue; host or cells: HDL3 fraction (1.125 < specific gravity < 1.210 g/mL) of plasma from a healthy person
T1 sequence (P04180 25-440): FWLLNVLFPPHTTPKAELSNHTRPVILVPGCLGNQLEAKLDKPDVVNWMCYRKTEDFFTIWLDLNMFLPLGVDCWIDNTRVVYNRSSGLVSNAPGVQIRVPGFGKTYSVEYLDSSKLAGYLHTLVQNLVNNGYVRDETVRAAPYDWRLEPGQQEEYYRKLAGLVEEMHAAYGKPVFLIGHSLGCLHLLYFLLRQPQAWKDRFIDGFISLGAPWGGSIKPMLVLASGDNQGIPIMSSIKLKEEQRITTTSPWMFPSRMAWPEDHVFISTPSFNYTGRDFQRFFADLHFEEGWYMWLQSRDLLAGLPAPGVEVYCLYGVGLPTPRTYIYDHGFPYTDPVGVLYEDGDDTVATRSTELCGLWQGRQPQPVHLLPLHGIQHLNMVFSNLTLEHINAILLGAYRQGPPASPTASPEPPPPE
Experiment: LCAT activity measurement (in vitro), [14C]cholesterol esterification with HDL3 fraction
Format: biochemical
Details: HDL3 fraction from plasma of a healthy person as enzyme source and acceptor; 37° C., approximately 16 hours; relative to sample without test drug; read-out: EC50 of LCAT activation
Description: A fraction composed of HDL3 (1.125 <specific gravity <1.210 g/mL) was obtained from the plasma of a healthy person by density gradient centrifugation. The obtained fraction was dialyzed against phosphate-buffered saline (pH 7.4) and used as an enzyme source and an acceptor for LCAT. Each test drug was prepared by dissolution in dimethyl sulfoxide. [^14C]Cholesterol containing DTNB (Ellman's reagent, final concentration: 0.5 mM), mercaptoethanol (final concentration: 12.5 mM), and 0.6% bovine serum albumin was added to phosphate-buffered saline (pH 7.4) containing 1 mg/mL HDL3, and the test drug was further added thereto at varying concentrations to adjust the whole amount to 80 μL. This mixture was incubated at 37° C. for approximately 16 hours. Then, a mixed solution of hexane and isopropanol (mixing ratio=3:2) was added thereto to stop the reaction. After stirring, the hexane layer was collected, and this layer was evaporated to dryness. A chloroform solution (concentration: 10 mg/mL) was added thereto, and the mixture was spotted onto a thin-layer silica gel plate and developed using a mixed solution of hexane, diethyl ether, and ethyl acetate (mixing ratio=85:15:2). The radioactivity of a portion corresponding to cholesterol oleate was measured using an imaging analyzer BAS-2500 (manufactured by Fujifilm Corp.). A sample non-supplemented with the test drug was similarly treated and assayed. The EC50 value of LCAT activation was calculated according to the expression given below relative to LCAT activity in the sample non-supplemented with the test drug.
[formula] • wherein X represents the logarithm of the concentration of the test drug; • Y represents the responsiveness (LCAT activity) of the test drug; • Top represents the maximum value (maximum plateau); • Bottom represents the minimum value (minimum plateau); and • EC50 represents the 50% effective concentration.

| pEC50 | SMILES |
| --- | --- |
| 7.19 | O=C1Nc2[nH]nc(C3CCN(c4nnc(C(F)(F)F)s4)CC3)c2[C@@H](C(F)(F)F)[C@H]1O (single isomer, unassigned) [Example 26, (+)-cis-5-Hydroxy-4-(trifluoromethyl)-3-{1-[5-(trifluoromethyl)-1,3,4-thiadiazol-2-yl]piperidin-4-yl}-1,4,5,7-tetrahydro-6H-pyrazolo[3,4-b]pyridin-6-one] |
| 7.54 | O=C1Nc2[nH]nc(C3CCN(c4cnc(C(F)(F)F)cn4)CC3)c2[C@@H](C(F)(F)F)[C@H]1O (racemic) [Example 11, cis-5-Hydroxy-4-(trifluoromethyl)-3-{l-[5-(trifluoromethyl)pyrazin-2-yl]piperidin-4-yl}-1,4,5,7-tetrahydro-6H-pyrazolo[3,4-b]pyridin-6-one] |
| 7.24 | O=C1Nc2[nH]nc(C3CCN(c4cc(C(=O)N5CCCCC5)c(C(F)(F)F)cn4)CC3)c2[C@@H](C(F)(F)F)[C@H]1O (racemic) [Example 33, cis-5-Hydroxy-3-{1-[4-(piperidin-1-ylcarbonyl)-5-(trifluoromethyl)pyridin-2-yl]piperidin-4-yl}-4-(trifluoromethyl)-1,4,5,7-tetrahydro-6H-pyrazolo[3,4-b]pyridin-6-one] |
| 6.96 | O=C1Nc2[nH]nc(C3CCN(c4ccc(C(F)(F)F)nn4)CC3)c2[C@@H](C(F)(F)F)[C@H]1O (racemic) [Example 7, cis-5-Hydroxy-4-(trifluoromethyl)-3-{1-[6-(trifluoromethyl)pyridazin-3-yl]piperidin-4-yl}-1,4,5,7-tetrahydro-6H-pyrazolo[3,4-b]pyridin-6-one] |
| 6.47 | O=C1Nc2[nH]nc(C3CCN(c4cnc(C(F)(F)F)cn4)CC3)c2[C@@H](C(F)(F)F)[C@@H]1O (racemic) [Example 10, trans-5-Hydroxy-4-(trifluoromethyl)-3-{1-[5-(trifluoromethyl)pyrazin-2-yl]piperidin-4-yl}-1,4,5,7-tetrahydro-6H-pyrazolo[3,4-b]pyridin-6-one] |
| 7.66 | O=C1Nc2[nH]nc(C3CCN(c4ccc(C(F)(F)F)cn4)CC3)c2C(O)(C(F)(F)F)C1O (stereo not shown) [Example 4, 4,5-Dihydroxy-4-(trifluoromethyl)-3-{1-[5-(trifluoromethyl)pyridin-2-yl]piperidin-4-yl}-1,4,5,7-tetrahydro-6H-pyrazolo[3,4-b]pyridin-6-one] |
| 6.20 | CC(C)c1nc(N2CCC(c3n[nH]c4c3[C@@H](C(F)(F)F)[C@H](O)C(=O)N4)CC2)cc(C(F)(F)F)n1 (racemic) [Example 8, trans-5-Hydroxy-3-{1-[2-isopropyl-6-(trifluoromethyl)pyrimidin-4-yl]piperidin-4-yl}-4-(trifluoromethyl)-1,4,5,7-tetrahydro-6H-pyrazolo[3,4-b]pyridin-6-one] |
| 7.00 | O=C1Nc2[nH]nc(C3CCN(c4ccnc(C(F)(F)F)n4)CC3)c2[C@@H](C(F)(F)F)[C@H]1O (single isomer, unassigned) [Example 25, (+)-cis-5-Hydroxy-4-(trifluoromethyl)-3-{1-[2-(trifluoromethyl)pyrimidin-4-yl]piperidin-4-yl}-1,4,5,7-tetrahydro-6H-pyrazolo[3,4-b]pyridin-6-one] |
| 7.46 | O=C1Nc2[nH]nc(C3CCN(c4cnc(C(F)(F)F)nc4)CC3)c2[C@@H](C(F)(F)F)[C@H]1O (racemic) [Example 12, cis-5-Hydroxy-4-(trifluoromethyl)-3-{1-[2-(trifluoromethyl)pyrimidin-5-yl]piperidin-4-yl}-1,4,5,7-tetrahydro-6H-pyrazolo[3,4-b]pyridin-6-one] |
| 7.51 | O=C1Nc2[nH]nc(C3CCN(c4cc(C(F)(F)F)ccn4)CC3)c2[C@@H](C(F)(F)F)[C@H]1O (racemic) [Example 17, cis-5-Hydroxy-4-(trifluoromethyl)-3-{1-[4-(trifluoromethyl)pyridin-2-yl]piperidin-4-yl}-1,4,5,7-tetrahydro-6H-pyrazolo[3,4-b]pyridin-6-one] |

— patent US9796709B2, “5-hydroxy-4-(trifluoromethyl)pyrazolopyridine derivative” (Daiichi Sankyo Company, Limited, priority 2013, dated 2017)
